Laboratory results from ChEMBL document CHEMBL4321845, “Discovery and Characterization of Potent Pan-Genotypic HCV NS5A Inhibitors Containing Novel Tricyclic Central Core Leading to Clinical Candidate” (J Med Chem, 2019).
Values belong to the molecule of their own block, whether it stands above or below them.

How the values were obtained:
[1] = Clearance in rat at 1 mg/kg, iv measured up to 24 hrs by LC-MS/MS analysis; type: ADME, organism-based; details: in vivo
[2] = Protein binding in human plasma; type: ADME, cell-free; details: read-out: PPB
[3] = AUC(last) in beagle dog at 1 mg/kg, iv measured up to 24 hrs by LC-MS/MS analysis; type: ADME, organism-based, Canis lupus familiaris; parameters: dose 1 mg/kg, route intravenous, time 0 - last; details: in vivo
[4] = AUC(last) in rat at 1 mg/kg, iv measured up to 24 hrs by LC-MS/MS analysis; type: ADME, organism-based; parameters: dose 1 mg/kg, route intravenous, time 0 - last; details: in vivo
[5] = Protein binding in rat plasma; type: ADME, cell-free; details: read-out: PPB
[6] = Half life in rat at 1 mg/kg, iv measured up to 24 hrs by LC-MS/MS analysis; type: ADME, organism-based; details: in vivo
[7] = Drug metabolism in rat liver microsomes assessed as metabolic rate at 1 uM preincubated for 5 mins before NADPH addition and measured up to 30 mins by LC-MS/MS analysis; type: ADME, Microsome; details: 0.5 h
[8] = AUC (last) in beagle dog at 100 mg/kg, po measured up to 24 hrs by LC-MS/MS analysis; type: ADME, organism-based, Canis lupus familiaris; parameters: dose 100 mg/kg, route oral, time 0 - last; details: in vivo
[9] = Tmax in rat at 100 mg/kg, po measured up to 24 hrs by LC-MS/MS analysis; type: ADME, organism-based; details: in vivo
[10] = Cmax in beagle dog at 30 mg/kg, po measured up to 24 hrs by LC-MS/MS analysis; type: ADME, organism-based, Canis lupus familiaris; parameters: dose 30 mg/kg, route oral; details: in vivo
[11] = Cmax in rat at 100 mg/kg, po measured up to 24 hrs by LC-MS/MS analysis; type: ADME, organism-based; parameters: dose 100 mg/kg, route oral; details: in vivo
[12] = AUC (last) in beagle dog at 10 mg/kg, po measured up to 24 hrs by LC-MS/MS analysis; type: ADME, organism-based, Canis lupus familiaris; parameters: dose 10 mg/kg, time 0 - last, route oral; details: in vivo
[13] = Cmax in rat at 10 mg/kg, po measured up to 24 hrs by LC-MS/MS analysis; type: ADME, organism-based; parameters: dose 10 mg/kg, route oral; details: in vivo
[14] = Cmax in beagle dog at 100 mg/kg, po measured up to 24 hrs by LC-MS/MS analysis; type: ADME, organism-based, Canis lupus familiaris; parameters: dose 100 mg/kg, route oral; details: in vivo
[15] = Tmax in beagle dog at 100 mg/kg, po measured up to 24 hrs by LC-MS/MS analysis; type: ADME, organism-based, Canis lupus familiaris; details: in vivo
[16] = Volume of distribution at steady state in beagle dog at 1 mg/kg, iv measured up to 24 hrs by LC-MS/MS analysis; type: ADME, organism-based, Canis lupus familiaris; details: in vivo, read-out: Vdss
[17] = Cytotoxicity in human HEK293 cells assessed as inhibition of cell growth at 10 uM incubated for 72 hrs by CCK8 assay relative to control; type: cell-based; details: read-out: GI
[18] = Tmax in beagle dog at 10 mg/kg, po measured up to 24 hrs by LC-MS/MS analysis; type: ADME, organism-based, Canis lupus familiaris; details: in vivo
[19] = AUC (last) in rat at 30 mg/kg, po measured up to 24 hrs by LC-MS/MS analysis; type: ADME, organism-based; parameters: dose 30 mg/kg, time 0 - last, route oral; details: in vivo
[20] = Tmax in beagle dog at 30 mg/kg, po measured up to 24 hrs by LC-MS/MS analysis; type: ADME, organism-based, Canis lupus familiaris; details: in vivo
[21] = Drug level in plasma of Wistar rat at 10 mg/kg, po measured at 4 hrs by LC-MS/MS analysis; type: ADME, organism-based
[22] = Drug metabolism in human liver microsomes assessed as metabolic rate at 1 uM preincubated for 5 mins before NADPH addition and measured up to 30 mins by LC-MS/MS analysis; type: ADME, Microsome; details: 0.5 h
[23] = Drug level in liver of Wistar rat at 10 mg/kg, po measured at 4 hrs by LC-MS/MS analysis; type: ADME, organism-based; details: read-out: Drug uptake
[24] = Oral bioavailability in rat at 10 mg/kg measured up to 24 hrs by LC-MS/MS analysis; type: ADME, organism-based; details: in vivo
[25] = Volume of distribution at steady state in rat at 1 mg/kg, iv measured up to 24 hrs by LC-MS/MS analysis; type: ADME, organism-based; details: in vivo, read-out: Vdss
[26] = AUC (last) in rat at 10 mg/kg, po measured up to 24 hrs by LC-MS/MS analysis; type: ADME, organism-based; parameters: dose 10 mg/kg, time 0 - last, route oral; details: in vivo
[27] = Ratio of dug level in liver to plasma of Wistar rat at 10 mg/kg, po measured at 4 hrs by LC-MS/MS analysis; type: ADME, organism-based
[28] = Half life in beagle dog at 1 mg/kg, iv measured up to 24 hrs by LC-MS/MS analysis; type: ADME, organism-based, Canis lupus familiaris; details: in vivo
CYP3A4 = CYP3A4 (Homo sapiens, UniProt P08684); test: Inhibition of CYP3A4 in pooled human liver microsomes at 10 uM pre-incubated for 5 mins before NADPH addition and measured after 10 mins by UPLC-MS/MS analysis relative to control; type: ADME
Chain of CYP3A4 (P08684 whole entry): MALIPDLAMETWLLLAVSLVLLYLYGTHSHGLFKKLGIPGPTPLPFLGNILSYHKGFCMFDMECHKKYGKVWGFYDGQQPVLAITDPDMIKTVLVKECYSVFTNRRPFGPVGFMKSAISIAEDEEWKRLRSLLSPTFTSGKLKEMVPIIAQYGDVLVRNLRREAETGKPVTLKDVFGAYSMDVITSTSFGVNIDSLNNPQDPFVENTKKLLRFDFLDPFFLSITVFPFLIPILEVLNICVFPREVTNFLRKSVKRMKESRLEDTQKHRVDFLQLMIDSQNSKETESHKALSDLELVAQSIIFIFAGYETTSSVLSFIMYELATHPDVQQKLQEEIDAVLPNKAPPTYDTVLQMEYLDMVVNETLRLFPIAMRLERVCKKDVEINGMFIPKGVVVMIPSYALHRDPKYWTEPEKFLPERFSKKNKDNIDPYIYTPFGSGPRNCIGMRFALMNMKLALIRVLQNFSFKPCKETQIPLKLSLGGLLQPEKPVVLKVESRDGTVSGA

[29] = Cmax in rat at 30 mg/kg, po measured up to 24 hrs by LC-MS/MS analysis; type: ADME, organism-based; parameters: dose 30 mg/kg, route oral; details: in vivo
[30] = Tmax in rat at 10 mg/kg, po measured up to 24 hrs by LC-MS/MS analysis; type: ADME, organism-based; details: in vivo
CYP2C9 = CYP2C9 (Homo sapiens, UniProt P11712); test: Inhibition of CYP2C9 in pooled human liver microsomes at 10 uM pre-incubated for 5 mins before NADPH addition and measured after 10 mins by UPLC-MS/MS analysis relative to control; type: ADME
Chain of CYP2C9 (P11712 whole entry): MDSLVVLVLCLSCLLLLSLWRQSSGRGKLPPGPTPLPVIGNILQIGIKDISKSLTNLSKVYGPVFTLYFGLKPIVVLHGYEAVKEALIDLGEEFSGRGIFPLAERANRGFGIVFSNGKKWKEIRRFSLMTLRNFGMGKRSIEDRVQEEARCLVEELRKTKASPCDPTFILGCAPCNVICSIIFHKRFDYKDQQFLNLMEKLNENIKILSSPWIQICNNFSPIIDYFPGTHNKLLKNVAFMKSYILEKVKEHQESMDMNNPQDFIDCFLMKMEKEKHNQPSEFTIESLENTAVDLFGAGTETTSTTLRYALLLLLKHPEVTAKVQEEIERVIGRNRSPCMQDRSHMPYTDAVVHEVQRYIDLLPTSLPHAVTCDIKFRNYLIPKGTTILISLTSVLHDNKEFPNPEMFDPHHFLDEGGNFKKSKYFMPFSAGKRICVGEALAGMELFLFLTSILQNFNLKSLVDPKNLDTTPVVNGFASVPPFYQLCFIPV

CYP2D6 = CYP2D6 (Homo sapiens, UniProt P10635); test: Inhibition of CYP2D6 in pooled human liver microsomes at 10 uM pre-incubated for 5 mins before NADPH addition and measured after 10 mins by UPLC-MS/MS analysis relative to control; type: ADME
Chain of CYP2D6 (P10635 whole entry): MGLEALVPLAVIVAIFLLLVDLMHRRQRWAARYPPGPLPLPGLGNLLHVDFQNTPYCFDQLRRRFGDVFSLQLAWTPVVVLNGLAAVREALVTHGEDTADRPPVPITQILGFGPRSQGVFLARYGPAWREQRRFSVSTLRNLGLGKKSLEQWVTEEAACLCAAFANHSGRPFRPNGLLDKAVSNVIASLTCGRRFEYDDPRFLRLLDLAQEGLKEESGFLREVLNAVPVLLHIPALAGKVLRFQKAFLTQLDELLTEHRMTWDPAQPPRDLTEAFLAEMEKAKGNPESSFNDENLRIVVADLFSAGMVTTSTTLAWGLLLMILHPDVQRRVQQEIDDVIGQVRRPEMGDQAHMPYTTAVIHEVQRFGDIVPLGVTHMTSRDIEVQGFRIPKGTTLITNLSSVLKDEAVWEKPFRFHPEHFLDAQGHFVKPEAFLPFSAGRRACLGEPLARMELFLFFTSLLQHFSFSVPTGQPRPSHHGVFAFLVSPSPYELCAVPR

[31] = Cytotoxicity in human HuH7 cells assessed as inhibition of cell growth at 3 uM incubated for 72 hrs by CCK8 assay relative to control; type: cell-based, Huh-7; details: read-out: GI
[32] = Cytotoxicity in human HepG2 cells assessed as inhibition of cell growth at 10 uM incubated for 72 hrs by CCK8 assay relative to control; type: cell-based; details: read-out: GI
[33] = Tmax in rat at 30 mg/kg, po measured up to 24 hrs by LC-MS/MS analysis; type: ADME, organism-based; details: in vivo
[34] = Cytotoxicity in human HEK293 cells assessed as inhibition of cell growth at 3 uM incubated for 72 hrs by CCK8 assay relative to control; type: cell-based; details: read-out: GI
[35] = Drug level in liver of Wistar rat at 10 mg/kg, po measured up to 8 hrs by LC-MS/MS analysis; type: ADME, organism-based; details: in vivo
[36] = Cytotoxicity in human HepG2 cells assessed as inhibition of cell growth at 3 uM incubated for 72 hrs by CCK8 assay relative to control; type: cell-based; details: read-out: GI
[37] = Oral bioavailability in beagle dog at 10 mg/kg measured up to 24 hrs by LC-MS/MS analysis; type: ADME, organism-based, Canis lupus familiaris; details: in vivo
[38] = AUC (last) in beagle dog at 30 mg/kg, po measured up to 24 hrs by LC-MS/MS analysis; type: ADME, organism-based, Canis lupus familiaris; parameters: dose 30 mg/kg, route oral, time 0 - last; details: in vivo
[39] = AUC (last) in rat at 100 mg/kg, po measured up to 24 hrs by LC-MS/MS analysis; type: ADME, organism-based; parameters: dose 100 mg/kg, time 0 - last, route oral; details: in vivo
[40] = Cytotoxicity in human HuH7 cells assessed as inhibition of cell growth at 10 uM incubated for 72 hrs by CCK8 assay relative to control; type: cell-based, Huh-7; details: read-out: GI
[41] = Cmax in beagle dog at 10 mg/kg, po measured up to 24 hrs by LC-MS/MS analysis; type: ADME, organism-based, Canis lupus familiaris; parameters: dose 10 mg/kg, route oral; details: in vivo
[42] = Clearance in beagle dog at 1 mg/kg, iv measured up to 24 hrs by LC-MS/MS analysis; type: ADME, organism-based, Canis lupus familiaris; details: in vivo

clearance [1]: 11 mL/min/kg | fraction unbound [2]: < 0.01 | AUC(0-t) at 24 h [3]: 3 µM·h | AUC(0-t) at 24 h [4]: 2 µM·h | fraction unbound [5]: < 0.01 | half-life [6]: 2 h | Drug metabolism [7]: 0.01 nmol/min/mg | AUC(0-t) at 24 h [8]: 179 µM·h | Tmax [9]: 4 to 6 h | Cmax [10]: 10 µM | Cmax [11]: 15 µM | AUC(0-t) at 24 h [12]: 49 µM·h | Cmax [13]: 0.9 to 1 µM | Cmax [14]: 17 µM | Tmax [15]: 3 h | Vd [16]: 2 L/kg | Tmax [18]: 1 h | AUC(0-t) at 24 h [19]: 24 µM·h | Tmax [20]: 4 h | concentration at 4 h [21]: 0.6 µM | Drug metabolism [22]: 0.04 nmol/min/mg | concentration at 4 h [23]: 8.5 µM | bioavailability [24]: 30% | Vd [25]: 2 L/kg | AUC(0-t) at 24 h [26]: 4 to 6 µM·h | Kp at 4 h [27]: 14.5 | half-life [28]: 4 h | inhibition at 10 min, 10 µM (CYP3A4): 12% | Cmax [29]: 3 µM | Tmax [30]: 4 to 6 h | inhibition at 10 min, 10 µM (CYP2C9): 42% | inhibition at 10 min, 10 µM (CYP2D6): 12% | Tmax [33]: 4 to 6 h | Drug uptake [35]: Active | bioavailability [37]: 100% | AUC(0-t) at 24 h [38]: 86 µM·h | AUC(0-t) at 24 h [39]: 127 µM·h | Cmax [41]: 5 µM | clearance [42]: 6 mL/min/kg
SMILES: COC(=O)N[C@H](C(=O)N1CCC[C@H]1c1ncc(-c2ccc3c(ccc4cc(-c5cnc([C@@H]6CCCN6C(=O)[C@@H](NC(=O)OC)C(C)C)[nH]5)sc43)c2)[nH]1)C(C)C
inhibition at 72 h, 10 µM [17]: 36% | inhibition at 72 h, 3 µM [31]: 0% | inhibition at 72 h, 10 µM [32]: 22% | inhibition at 72 h, 3 µM [34]: 0% | inhibition at 72 h, 3 µM [36]: 3% | inhibition at 72 h, 10 µM [40]: 14%

clearance [1]: 10 mL/min/kg | AUC(0-t) at 24 h [3]: 3 µM·h | AUC(0-t) at 24 h [4]: 2 µM·h | half-life [6]: 1.9 h | Drug metabolism [7]: 0.01 nmol/min/mg | Tmax [9]: 2 to 6 h | Cmax [11]: 7 µM | AUC(0-t) at 24 h [12]: 40 µM·h | Cmax [13]: 0.3 to 2 µM | Vd [16]: 2 L/kg | AUC(0-t) at 24 h [19]: 28 µM·h | concentration at 4 h [21]: 1.39 µM | Drug metabolism [22]: 0.02 nmol/min/mg | concentration at 4 h [23]: 7.9 µM | bioavailability [24]: 30% | Vd [25]: 1.5 L/kg | AUC(0-t) at 24 h [26]: 2 to 6 µM·h | Kp at 4 h [27]: 5.5 | half-life [28]: 3 h | inhibition at 10 min, 10 µM (CYP3A4): 22% | Cmax [29]: 2 µM | Tmax [30]: 2 to 4 h | inhibition at 10 min, 10 µM (CYP2C9): 41% | inhibition at 10 min, 10 µM (CYP2D6): 13% | Tmax [33]: 4 to 6 h | Drug uptake [35]: Active | bioavailability [37]: 100% | AUC(0-t) at 24 h [39]: 76 µM·h | Cmax [41]: 3 µM | clearance [42]: 7 mL/min/kg
SMILES: COC(=O)N[C@H](C(=O)N1CCC[C@H]1c1ncc(-c2ccc3c(c2)OCc2cc(-c4cnc([C@@H]5CCCN5C(=O)[C@@H](NC(=O)OC)C(C)C)[nH]4)sc2-3)[nH]1)C(C)C
inhibition at 72 h, 10 µM [17]: 22% | inhibition at 72 h, 3 µM [31]: 3% | inhibition at 72 h, 10 µM [32]: 16% | inhibition at 72 h, 3 µM [34]: 14% | inhibition at 72 h, 3 µM [36]: 0%
